The record followed here is US7728107B2 (priority 2005, dated 2010).

This assay has as its target canine 5-HT2A receptor (Canis lupus familiaris, UniProt O46635). Kind of assay: Saturation binding of [^3H]5-HT to membranes of COS-7 cells transfected with canine 5-HT2A receptor.

canine 5-HT2A receptor, sequence (O46635 whole entry): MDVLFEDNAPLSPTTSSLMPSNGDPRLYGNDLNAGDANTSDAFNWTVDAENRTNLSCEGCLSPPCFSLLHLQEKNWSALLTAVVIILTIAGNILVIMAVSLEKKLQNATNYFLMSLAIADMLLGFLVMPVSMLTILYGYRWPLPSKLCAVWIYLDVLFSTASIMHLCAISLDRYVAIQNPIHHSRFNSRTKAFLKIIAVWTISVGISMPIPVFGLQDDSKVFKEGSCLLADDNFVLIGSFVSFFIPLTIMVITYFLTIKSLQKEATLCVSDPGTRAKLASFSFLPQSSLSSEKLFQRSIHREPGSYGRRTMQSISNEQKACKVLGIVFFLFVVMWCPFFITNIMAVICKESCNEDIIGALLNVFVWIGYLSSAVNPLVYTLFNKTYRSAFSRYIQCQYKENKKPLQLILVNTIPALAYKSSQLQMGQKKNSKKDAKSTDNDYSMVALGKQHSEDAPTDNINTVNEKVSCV

One may read the Kd as the concentration at which binding is half-saturated. `NCCc1c[nH]c2ccc(O)cc12` [[^3H]-5-HT] yielded an equilibrium dissociation constant (Kd) of 3 ± 0.6 nM.
